Values after ≈ are worked out from the molar mass of the structure shown.
Legend:
[1] = tested on: Enterococcus faecalis; assay: Antibacterial activity against Enterococcus faecalis after 24 hrs by broth microdilution method; assay type: functional; details: read-out: MIC
[2] = tested on: Staphylococcus aureus; assay: Antibacterial activity against Staphylococcus aureus Smith after 24 hrs by broth microdilution method; assay type: functional; details: read-out: MIC
[3] = tested on: Staphylococcus aureus; assay: Antibacterial activity against methicillin-resistant Staphylococcus aureus clinical isolate after 24 hrs by broth microdilution method; assay type: functional; details: read-out: MIC
[4] = tested on: Staphylococcus aureus; assay: Antibacterial activity against methicillin-resistant and vancomycin-intermediate resistant Staphylococcus aureus clinical isolate after 24 hrs by broth microdilution method; assay type: functional; details: read-out: MIC
[5] = tested on: Staphylococcus aureus; assay: Antibacterial activity against vancomycin-intermediate resistant Staphylococcus aureus clinical isolate after 24 hrs by broth microdilution method; assay type: functional
[6] = tested on: Streptococcus pyogenes; assay: Antibacterial activity against Streptococcus pyogenes C203 after 24 hrs by broth microdilution method; assay type: functional; details: C203, 24 h, read-out: MIC
[7] = tested on: Enterococcus faecalis; assay: Antibacterial activity against vancomycin A-resistant Enterococcus faecalis after 24 hrs by broth microdilution method; assay type: functional; details: read-out: MIC
[8] = tested on: Enterococcus faecium; assay: Antibacterial activity against Enterococcus faecium after 24 hrs by broth microdilution method; assay type: functional; details: read-out: MIC
[9] = tested on: Enterococcus faecium; assay: Antibacterial activity against vancomycin A-resistant Enterococcus faecium clinical isolate after 24 hrs by broth microdilution method; assay type: functional; details: read-out: MIC
[10] = tested on: Escherichia coli; assay: Antibacterial activity against Escherichia coli SKF-12140 after 24 hrs by broth microdilution method; assay type: functional; details: read-out: MIC
[11] = tested on: Candida albicans; assay: Antifungal activity against Candida albicans SKF-2270 after 24 hrs by broth microdilution method; assay type: functional; details: read-out: MIC
[12] = Toxicity assessed as hemolysis in erythrocytes at 180 mg/L; assay type: cell-based, Erythrocyte; details: human, erythrocytes; read-out: Activity
[13] = Toxicity assessed as hemolysis in erythrocytes at 90 mg/L; assay type: cell-based, Erythrocyte; details: human, erythrocytes; read-out: Activity
[14] = tested on: Staphylococcus aureus; assay: Antibacterial activity against vancomycin-intermediate resistant Staphylococcus aureus clinical isolate in presence of 30% bovine serum after 24 hrs by broth microdilution method; assay type: functional
[15] = tested on: Staphylococcus aureus; assay: Antibacterial activity against Staphylococcus aureus Smith in presence of 30% bovine serum after 24 hrs by broth microdilution method; assay type: functional
[16] = tested on: Enterococcus faecalis; assay: Antibacterial activity against vancomycin-resistant Enterococcus faecalis in presence of 30% bovine serum after 24 hrs by broth microdilution method; assay type: functional
[17] = tested on: Enterococcus faecium; assay: Antibacterial activity against vancomycin A-resistant Enterococcus faecium clinical isolate in presence of 30% bovine serum after 24 hrs by broth microdilution method; assay type: functional

| SMILES | MIC [1] [µg/mL] | MIC [2] [µg/mL] | MIC [3] [µg/mL] | MIC [4] [µg/mL] | MIC [5] [µg/mL] | MIC [6] [µg/mL] | MIC [7] [µg/mL] | MIC [8] [µg/mL] | MIC [9] [µg/mL] | MIC [10] [µg/mL] | MIC [11] [µg/mL] | hemolysis at 180 mg/L [12] [%] | hemolysis at 90 mg/L [13] [%] | MIC [14] [µg/mL] | MIC [15] [µg/mL] | MIC [16] [µg/mL] | MIC [17] [µg/mL] |
| --- | --- | --- | --- | --- | --- | --- | --- | --- | --- | --- | --- | --- | --- | --- | --- | --- | --- |
| CC(C)C[C@@H]1NC(=O)CNC(=O)[C@H](c2ccc(O)cc2)NC(=O)[C@@H]([C@@H](C)O)NC(=O)[C@H](c2ccc(O[C@H]3O[C@H](CO)[C@@H](O)[C@H](O)[C@@H]3O[C@H]3O[C@H](CO)[C@@H](O)[C@H](O)[C@@H]3O)cc2)NC(=O)[C@@H](CCCN)NC(=O)[C@H](Cc2ccccc2)NC(=O)[C@H]([C@@H](C)O)NC(=O)[C@@H](c2ccc(O)cc2)NC(=O)[C@H](c2ccc(O)cc2)NC(=O)[C@@H](C(C)C)NC(=O)[C@@H](CCCN)NC(=O)[C@@H](c2ccc(O)cc2)NC(=O)[C@@H](CNC(=O)[C@H](CC(N)=O)NC(=O)Cc2ccc3ccccc3c2)[C@@H](C(N)=O)OC(=O)[C@H](c2ccc(O)c(Cl)c2)NC(=O)[C@@H](C)NC1=O.Cl | 0.125 | 0.25 | 0.25 | 1 | 1 | ≤ 0.03 | 0.125 | 0.25 | 0.25 | > 32 | > 32 | 59 | 24 |  |  |  |  |
| CCCCc1ccc(C(=O)N[C@@H](CC(N)=O)C(=O)NC[C@@H]2C(=O)N[C@H](c3ccc(O)cc3)C(=O)N[C@H](CCCN)C(=O)N[C@H](C(C)C)C(=O)N[C@@H](c3ccc(O)cc3)C(=O)N[C@H](c3ccc(O)cc3)C(=O)N[C@@H]([C@@H](C)O)C(=O)N[C@@H](Cc3ccccc3)C(=O)N[C@H](CCCN)C(=O)N[C@@H](c3ccc(O[C@H]4O[C@H](CO)[C@@H](O)[C@H](O)[C@@H]4O[C@H]4O[C@H](CO)[C@@H](O)[C@H](O)[C@@H]4O)cc3)C(=O)N[C@H]([C@@H](C)O)C(=O)N[C@@H](c3ccc(O)cc3)C(=O)NCC(=O)N[C@@H](CC(C)C)C(=O)N[C@H](C)C(=O)N[C@@H](c3ccc(O)c(Cl)c3)C(=O)O[C@@H]2C(N)=O)cc1 | 0.25 (≈ 0.0965 µM) | 0.25 (≈ 0.0965 µM) | 0.5 (≈ 0.193 µM) | 4 (≈ 1.54 µM) | 2 (≈ 0.772 µM) | < 0.03 | 0.25 (≈ 0.0965 µM) | 0.25 (≈ 0.0965 µM) | 0.25 (≈ 0.0965 µM) | > 32 | > 32 | 91 | 47 |  |  |  |  |
| CCc1ccccc1CC(=O)N[C@@H](CC(N)=O)C(=O)N[C@@H]1C(=O)N[C@H](c2ccc(O)cc2)C(=O)N[C@H](CCCN)C(=O)N[C@H]([C@@H](C)O)C(=O)N[C@@H](c2ccc(O)cc2)C(=O)N[C@H](c2ccc(O)cc2)C(=O)N[C@@H]([C@H](C)O)C(=O)N[C@@H](Cc2ccccc2)C(=O)N[C@H](CCCN)C(=O)N[C@@H](c2ccc(O[C@H]3O[C@H](CO)[C@@H](O)[C@H](O)[C@@H]3O[C@H]3O[C@H](CO)[C@@H](O)[C@H](O)[C@@H]3O)cc2)C(=O)N[C@H]([C@@H](C)O)C(=O)N[C@@H](c2ccc(O)cc2)C(=O)NCC(=O)N[C@@H](CC(C)C)C(=O)N[C@H](C)C(=O)N[C@@H](c2ccc(O)c(Cl)c2)C(=O)O[C@@H]1C(N)=O | 0.5 (≈ 0.195 µM) | 0.125 (≈ 0.0488 µM) | 0.5 (≈ 0.195 µM) | 2 (≈ 0.78 µM) | 1 (≈ 0.39 µM) | ≤ 0.125 | 0.5 (≈ 0.195 µM) | ≤ 0.06 | 0.5 (≈ 0.195 µM) | > 128 | > 128 |  |  | 4 | 1 | 2 | 4 |
| COc1ccc(CC(=O)N[C@@H](CC(N)=O)C(=O)NC[C@@H]2C(=O)N[C@H](c3ccc(O)cc3)C(=O)N[C@H](CCCN)C(=O)N[C@H](C(C)C)C(=O)N[C@@H](c3ccc(O)cc3)C(=O)N[C@H](c3ccc(O)cc3)C(=O)N[C@@H]([C@@H](C)O)C(=O)N[C@@H](Cc3ccccc3)C(=O)N[C@H](CCCN)C(=O)N[C@@H](c3ccc(O[C@H]4O[C@H](CO)[C@@H](O)[C@H](O)[C@@H]4O[C@H]4O[C@H](CO)[C@@H](O)[C@H](O)[C@@H]4O)cc3)C(=O)N[C@H]([C@@H](C)O)C(=O)N[C@@H](c3ccc(O)cc3)C(=O)NCC(=O)N[C@@H](CC(C)C)C(=O)N[C@H](C)C(=O)N[C@@H](c3ccc(O)c(Cl)c3)C(=O)O[C@@H]2C(N)=O)cc1 | 8 (≈ 3.1 µM) | 8 (≈ 3.1 µM) | 8 (≈ 3.1 µM) | 32 (≈ 12.4 µM) | 32 (≈ 12.4 µM) | 0.125 (≈ 0.0485 µM) | 8 (≈ 3.1 µM) | 16 (≈ 6.21 µM) | 8 (≈ 3.1 µM) | > 32 | > 32 | 0 | 0 |  |  |  |  |
